Laboratory results from PubChem BioAssay AID1918952 (Molecular Pharmacology Branch, DTP, NCI, 2023).

Tested on: LG0703-F948-PDC complex spheroid viability
Experiment: Anticancer human tumor LG0703-F948-PDC patient-derived lung adenocarcinoma cell line growth inhibition
Conditions: for IC50: curve of first compound; for viability, T/C: stronger effect = lower value
Outline: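 Complex spheroids of tumor cells with HUVEC and human MSCs, exposed to iadademstat combined with other agents. Each agent tested in half-log steps from near clinical Cmax (else 10 microM top), DMSO ≤0.25%.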

[1] = second compound 0.1 µM, first compound 0.000316 µM
[2] = second compound 0.1 µM, first compound 0.001 µM
[3] = second compound 0.1 µM, first compound 0.00316 µM
[4] = second compound 0.1 µM, first compound 0.01 µM
[5] = second compound 0.1 µM, first compound 0.0316 µM
[6] = second compound 0.1 µM, first compound 0.1 µM
[7] = second compound 0.316 µM, first compound 0.000316 µM
[8] = second compound 0.316 µM, first compound 0.001 µM
[9] = second compound 0.316 µM, first compound 0.00316 µM
[10] = second compound 0.316 µM, first compound 0.01 µM
[11] = second compound 0.316 µM, first compound 0.0316 µM
[12] = second compound 0.316 µM, first compound 0.1 µM
[13] = second compound 1 µM, first compound 0.000316 µM
[14] = second compound 1 µM, first compound 0.001 µM
[15] = second compound 1 µM, first compound 0.00316 µM
[16] = second compound 1 µM, first compound 0.01 µM
[17] = second compound 1 µM, first compound 0.0316 µM
[18] = second compound 1 µM, first compound 0.1 µM
[19] = second compound 3.16 µM, first compound 0.000316 µM
[20] = second compound 3.16 µM, first compound 0.001 µM
[21] = second compound 3.16 µM, first compound 0.00316 µM
[22] = second compound 3.16 µM, first compound 0.01 µM
[23] = second compound 3.16 µM, first compound 0.0316 µM
[24] = second compound 3.16 µM, first compound 0.1 µM
[25] = second compound 10 µM, first compound 0.000316 µM
[26] = second compound 10 µM, first compound 0.001 µM
[27] = second compound 10 µM, first compound 0.00316 µM
[28] = second compound 10 µM, first compound 0.01 µM
[29] = second compound 10 µM, first compound 0.0316 µM
[30] = second compound 10 µM, first compound 0.1 µM
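Further: spheroids exposed to agents for seven days before readout.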
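Wherever viability, T/C is given: 100% = DMSO vehicle control wells as normalization base.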

| Compound | IC50 (second compound 0.1 µM) [nM] | IC50 (second compound 0.316 µM) [nM] | IC50 (second compound 1 µM) [nM] | IC50 (second compound 3.16 µM) [nM] | IC50 (second compound 10 µM) [nM] | viability, T/C [1] [%] | viability, T/C [2] [%] | viability, T/C [3] [%] | viability, T/C [4] [%] | viability, T/C [5] [%] | viability, T/C [6] [%] | viability, T/C [7] [%] | viability, T/C [8] [%] | viability, T/C [9] [%] | viability, T/C [10] [%] | viability, T/C [11] [%] | viability, T/C [12] [%] | viability, T/C [13] [%] | viability, T/C [14] [%] | viability, T/C [15] [%] | also measured |
| --- | --- | --- | --- | --- | --- | --- | --- | --- | --- | --- | --- | --- | --- | --- | --- | --- | --- | --- | --- | --- | --- |
| CC(C)CC(NC(=O)C(Cc1ccccc1)NC(=O)c1cnccn1)B(O)O (stereo not given) + NC1CCC(NC2CC2c2ccccc2)CC1 | < 0.316 | < 0.316 | < 0.316 | < 0.316 | < 0.316 | 8.14 | 0.63 | 0.43 | 0.05 | 0.04 | 0.13 | 8.59 | 1.33 | 0.03 | 0.82 | 0.07 | 0.11 | 7.45 | 0.3 | 0.12 | viability, T/C [16]: 0.06%; viability, T/C [17]: 0.02%; viability, T/C [18]: 0.1%; viability, T/C [19]: 5.46%; viability, T/C [20]: 0.14%; viability, T/C [21]: 0.04%; viability, T/C [22]: 0.1%; viability, T/C [23]: 0.03%; viability, T/C [24]: 0.12%; viability, T/C [25]: 1.9%; viability, T/C [26]: 0.49%; viability, T/C [27]: 0.29%; viability, T/C [28]: 0.18%; viability, T/C [29]: 0.13%; viability, T/C [30]: 0.25% |
| CC(C)CC(NC(=O)CNC(=O)c1cc(Cl)ccc1Cl)B1OC(=O)CC(CC(=O)O)(C(=O)O)O1 (stereo not given) + NC1CCC(NC2CC2c2ccccc2)CC1 | 4.54 | 4.94 | 4.29 | 3.05 | 1.98 | 118 | 95.6 | 66.7 | 19.8 | 2.45 | 0.73 | 104 | 102 | 69.4 | 19 | 2.48 | 0.54 | 118 | 115 | 60.8 | viability, T/C [16]: 17%; viability, T/C [17]: 2.68%; viability, T/C [18]: 1.21%; viability, T/C [19]: 112%; viability, T/C [20]: 127%; viability, T/C [21]: 47.6%; viability, T/C [22]: 13.8%; viability, T/C [23]: 2.43%; viability, T/C [24]: 0.36%; viability, T/C [25]: 109%; viability, T/C [26]: 97.7%; viability, T/C [27]: 17.4%; viability, T/C [28]: 6.56%; viability, T/C [29]: 0.78%; viability, T/C [30]: 0.48% |
